Read-outs that look alike come from different tables or passages of the source.

Here are results for five compounds from PMC4900566, “Pharmacokinetic-Pharmacodynamic Analysis on Inflammation Rat Model after Oral Administration of Huang Lian Jie Du Decoction” (PLoS ONE, 2016).

This data set is described as follows: Pharmacokinetics of HLJDD components in rat plasma after oral administration of HLJDD (LC-QqQ-MS, non-compartmental). Type of data set: in vivo, Sprague-Dawley rats. The settings on record: oral HLJDD extract; for AUC%Extrap / AUMClast / Cmax1 / HLλz / Tmax1 / AUC(0-inf) / AUC(0-t) / MRT last / CL/F / Vd/F / AUCinf / AUClast / Cmax2 / MRTlast / Tmax2 / Vz/F: crude material 3.5 g/kg, plasma, n = 6; for mean AUClast, fold larger in the inflamed group than in the control group: inflamed vs normal rats; for Vd/F: read-out: Vz/F. The protocol: The rats were acclimatized to the facilities for 5 days and screened via the continuous determination of the rectal temperature for two days. […] The control group G1 was injected with the same volume of physiological saline. The ethics committees of Cisco North Biotechnology Co., Ltd. (Beijing, China) and the China Academy of Chinese Medical Sciences (Beijing, China) approved the experimental protocol.
For the PK-PD analysis, cannulas were implanted in each rat’s jugular vein (n = 22). To study the hepatic first-pass effect (HFPE), the jugular vein and the pyloric vein of each rat (n = 5) were cannulated according to the method described by Hye J. Chung et al. with slight modifications. Instead of the portal vein, the pyloric vein was cannulated to minimize the interference of blood flow in the portal vein [41]. The surgery was performed under anesthesia (3% chloral hydrate solution, intraperitoneal injection; 3.5 mL/kg) 5 days prior to the experiment. Rats with jugular vein intubation surgery were divided into four groups: a control group with HLJDD (G1, n = 6), aninflammatory group with HLJDD (G2, n = 6), aninflammatory group with physiological saline (G3, n = 5) and another inflammatory group with HLJDD (G4, n = 5). G1 and G2 were used for the pharmacokinetic study, while G3 and G4 were used for the pharmacodynamic study. Rats with jugular and pyloric vein cannulation for HFPE analysis were assigned to another inflammatory group with HLJDD (G5, n = 5).
The prepared HLJDD-EP solution was administered to the rats (G1, G2, G4 and G5) at 2 mL/100g body weight (crude material content: 3.5 g/kg) by oral gavage, and the G3 group was given the same volume of physiological saline. […] The rectal temperature of rats in the G3 and G4 groups was immediately monitored after each collection of blood. […] Samples were collected in heparinized Eppendorf tubes and centrifuged at 3000 rpm for 15 min. The plasma was stored at -80°C until assay.
The supernatant was dried with nitrogen at 40°C. The residue was re-dissolved in 100 μL of methanol and centrifuged at 15000 rpm for 10 min.
Liquid chromatographic separations of the analytes were performed using a Thermo Scientific Hypersil GOLD column (50 mm× 2.1 mm, 1.9 μm). The mobile phase consisted of acetonitrile (solvent A) and 0.1% formic acid in water (solvent B). […] The flow rate was 0.3 mL/min. The injection volume was 2 μL. […] The optimized ESI source parameters were as follows: gas temperature, 200°C; gas flow, 14 L/min; nebulizer pressure, 20 psi; sheath gas temperature, 400°C; and sheath gas flow, 11 L/min. Analytes were quantitated by monitoring the precursor-product combination in the DMRM mode using ion polarity switching (flavonoids and alkaloids were determined in the positive mode, while iridoids were detected in the negative mode). To ensure the desired abundance of each compound, the CE values and other parameters were optimized and illustrated as follows: cycle time, 300 ms; positive capillary voltage, 3000 v; negative capillary voltage, 2000 v; positive nozzle voltage, 1500 v; negative nozzle voltage, 1000 v; Delta EMV(+), 200 v; Delta EMV(-), 200 v. The optimized mass transition ion pairs (m/z) for analytes and the detection of the conditions of the compounds are shown in S1 Table.
Pharmacokinetic parameters of the determined compounds were processed by the non-compartmental method using Phoenix Winnonlin software (Pharsight Corporation, USA). Linear trapezoidal integration was used to calculate areas under the concentration-time curves (AUC) and areas under the first moment curves (AUMC). The mean residence time (MRT) was determined as AUMC/AUC. The plasma half-life (HLλz), maximum plasma concentration (Cmax), the time to reach Cmax (Tmax) and other parameters following the administration of HLJDD were determined from the observed data. The HFPE was defined as HCR: HCR% = 100×(AUC0−t in the pyloric vein-AUC0−t in the jugular vein)/AUC0−t in the pyloric vein.

Setting [1] is: male, Sprague-Dawley, rat, in vivo, po, 3.5 g/kg, inflamed rats (group M).
The mark [2] stands for this setting: male, Sprague-Dawley, rat, in vivo, po, 3.5 g/kg, normal rats (group B).
[3] abbreviates: male, Sprague-Dawley, rat, po, 3.5 g/kg, inflamed rats (group M).
[4] abbreviates: male, Sprague-Dawley, rat, po, 3.5 g/kg, inflamed rats (group M), read-out: CL/F (converted).
[5] abbreviates: male, Sprague-Dawley, rat, po, 3.5 g/kg, normal rats (group B).

In general, AUC(0-inf) refers to the area under the concentration-time curve extrapolated to infinity. One may read the AUC(0-t) as exposure summed from dosing to a finite time, without extrapolation to infinity. As a reminder, the MRT last is the average time that molecules of a dose stay in the body. Consider `COC(=O)C1=CO[C@@H](O[C@@H]2O[C@H](CO)[C@@H](O)[C@H](O)[C@H]2O)[C@@H]2C(CO)=CC[C@H]12` [geniposide], for which the “mean AUClast, fold larger in the inflamed group than in the control group” value (from here on “mean AUClast, fold larger”) is on record as 2.9 fold. In addition, under “inflamed rats (group M)”, the AUC%Extrap was determined as 8.9±2.9%, the AUMClast amounted to 1231.9±677.2 h*h*ng/ml, the Cmax1 came out at 223.2 ± 43.7 ng/mL and the HLλz came out at 1.6 ± 0.7 h. In addition, the Tmax1 (inflamed rats (group M)) was 0.8 ± 0.3 h. Under setting [1], the AUC(0-inf) stood at 696 ± 363 ng·h/mL, the AUC(0-t) came out at 638 ± 323 ng·h/mL, the MRT last was 1.9 ± 0.8 h and the Vd/F was determined as 372 ± 86.7 L/kg. For the setting “male, Sprague-Dawley, rat, in vivo, po, 3.5 g/kg, inflamed rats (group M), read-out: CL/F (converted)”, the CL/F was 3760 mL/min/kg. For the same compound, under setting [2], the AUC(0-inf) worked out at 240 ± 82.1 ng·h/mL, the AUC(0-t) turned out to be 217 ± 86.2 ng·h/mL, the mean residence time (MRT last) was 0.9 ± 0.1 h and the Vd/F stood at 235 ± 94.2 L/kg. Further, the CL/F (male, Sprague-Dawley, rat, in vivo, po, 3.5 g/kg, normal rats (group B), read-out: CL/F (converted)) is 6860 mL/min/kg. Under “normal rats (group B)”, the AUC%Extrap is reported as 11.5±1.5%, the AUMClast was found to be 192.5±74.8 h*h*ng/ml, the Cmax1 amounted to 171.6 ± 70.6 ng/mL and the HLλz was found to be 0.6 ± 0.3 h. Besides, the Tmax1 (normal rats (group B)) was 0.7 ± 0.3 h.
`COc1c(O[C@@H]2O[C@H](C(=O)O)[C@@H](O)[C@H](O)[C@H]2O)cc(O)c2c(=O)cc(-c3ccccc3)oc12` [wogonoside]: under “inflamed rats (group M)”, the AUC%Extrap amounted to 17.3±13.8%, the AUCinf was determined as 8380.9 ± 1944.5 ng·h/mL, the AUClast amounted to 6870.4 ± 1786.5 ng·h/mL and the AUMClast was found to be 92756.1±44786.8 h*h*ng/ml. For the setting “inflamed rats (group M)”, the CL/F worked out at 190 ± 45 mL/min/kg, the Cmax1 turned out to be 571.9 ± 183.4 ng/mL, the Cmax2 is 323.9 ± 52.5 ng/mL and the HLλz is 12.2 ± 5.9 h. Besides, under “inflamed rats (group M)”, the MRTlast worked out at 12.9 ± 3.0 h, the Tmax1 worked out at 0.16 ± 0.08 h, the Tmax2 was 8.7 ± 3.0 h and the Vz/F was found to be 188.6 ± 72.3 L/kg. For the setting “normal rats (group B)”, the AUC%Extrap stood at 9.6±6.6%, the AUCinf turned out to be 3615.4 ± 872.3 ng·h/mL, the AUClast was found to be 3302.3 ± 975.1 ng·h/mL and the AUMClast is listed as 15357.0±3545.6 h*h*ng/ml. Moreover, for the setting “normal rats (group B)”, the CL/F amounted to 442 ± 117 mL/min/kg, the Cmax1 was 492.9 ± 152.9 ng/mL, the Cmax2 worked out at 517.7 ± 173.8 ng/mL and the HLλz is 3.0 ± 1.0 h. Moreover, for the setting “normal rats (group B)”, the MRTlast was found to be 4.7 ± 0.5 h, the Tmax1 was determined as 0.11 ± 0.04 h, the Tmax2 worked out at 4.3 ± 0.8 h and the Vz/F stood at 118.7 ± 58.0 L/kg.
On to `COc1c(O)cc2oc(-c3ccccc3)cc(=O)c2c1O` [oroxylin A], for which, under “inflamed rats (group M)”, the AUC%Extrap was determined as 13.4±8.6%, the AUMClast was 365.4±192.9 h*h*ng/ml, the Cmax1 was 2.5 ± 1.1 ng/mL and the Cmax2 worked out at 2.3 ± 0.8 ng/mL. For the same compound, for the setting “inflamed rats (group M)”, the HLλz stood at 16.3 ± 8.8 h, the Tmax1 was determined as 0.08 ± 0.0 h and the Tmax2 turned out to be 7.0 ± 3.0 h. Moreover, under setting [3], the AUC(0-inf) was 24.6 ± 6.1 ng·h/mL, the AUC(0-t) was determined as 21.1 ± 4.1 ng·h/mL, the MRT last stood at 16.5 ± 6.2 h and the Vd/F worked out at 2820 ± 507 L/kg. The CL/F under setting [4] was 1790 mL/min/kg. Also, under setting [5], the AUC(0-inf) was 2.4 ± 0.5 ng·h/mL, the AUC(0-t) was found to be 2.3 ± 0.5 ng·h/mL, the MRT last amounted to 3 ± 0.6 h and the Vd/F stood at 2500 ± 1080 L/kg. Also, for the setting “normal rats (group B)”, the AUC%Extrap is reported as 5.3±3.4%, the AUMClast came to 7.1±2.7 h*h*ng/ml, the Cmax1 was 1.5 ± 0.6 ng/mL and the Cmax2 is 0.4 ± 0.1 ng/mL. Further, under “normal rats (group B)”, the HLλz came out at 1.7 ± 0.9 h, the Tmax1 was determined as 0.08 ± 0.0 h and the Tmax2 came to 4.0 ± 0.0 h.
As to `COc1c(O)cc(O)c2c(=O)cc(-c3ccccc3)oc12` [wogonin], the “mean AUClast, fold larger” value was found to be 5.4 fold. Also, under “inflamed rats (group M)”, the AUC%Extrap was determined as 1.3±0.7%, the AUMClast was 442.5±232.9 h*h*ng/ml, the Cmax1 came to 3.3 ± 0.7 ng/mL and the Cmax2 was 4.3 ± 1.8 ng/mL. Moreover, for the setting “inflamed rats (group M)”, the HLλz was determined as 7.1 ± 2.7 h, the Tmax1 was 0.08 ± 0.0 h and the Tmax2 was determined as 7.3 ± 2.7 h. Besides, under setting [3], the AUC(0-inf) amounted to 39.2 ± 8 ng·h/mL, the AUC(0-t) was found to be 38.7 ± 8.1 ng·h/mL, the MRT last came to 11 ± 3.5 h and the Vd/F was 1710 ± 667 L/kg. Besides, the CL/F under setting [4] is 2740 mL/min/kg. Under setting [5], the AUC(0-inf) was 7.4 ± 2.6 ng·h/mL, the AUC(0-t) turned out to be 7.2 ± 2.6 ng·h/mL, the MRT last was 4.3 ± 0.8 h and the Vd/F was 4010 ± 1350 L/kg. Under “normal rats (group B)”, the AUC%Extrap amounted to 2.7±2.3%, the AUMClast is 31.8±14.3 h*h*ng/ml, the Cmax1 is 2.2 ± 1.2 ng/mL and the Cmax2 was determined as 1.6 ± 0.7 ng/mL. Also, under “normal rats (group B)”, the HLλz was determined as 3.5 ± 1.3 h, the Tmax1 is 0.09 ± 0.03 h and the Tmax2 amounted to 4.0 ± 0.0 h.
`COc1ccc2cc3[n+](cc2c1OC)CCc1cc2c(cc1-3)OCO2` [berberine]: the “mean AUClast, fold larger” value worked out at 2.1 fold. Besides, for the setting “inflamed rats (group M)”, the AUC%Extrap was found to be 10.7±7.0%, the AUMClast was found to be 22.6±8.6 h*h*ng/ml, the Cmax1 was 0.5 ± 0.2 ng/mL and the Cmax2 is 0.3 ± 0.3 ng/mL. Further, for the setting “inflamed rats (group M)”, the HLλz amounted to 9.1 ± 2.5 h, the Tmax1 amounted to 1.0 ± 0.6 h and the Tmax2 is 10.8 ± 2.7 h. Under setting [3], the AUC(0-inf) came out at 3.4 ± 0.7 ng·h/mL, the AUC(0-t) came out at 2.7 ± 0.8 ng·h/mL and the MRT last was 8.4 ± 3.1 h. Also, under setting [5], the AUC(0-inf) is 1.8 ± 0.6 ng·h/mL, the AUC(0-t) was 1.3 ± 0.5 ng·h/mL and the mean residence time MRT last was 5.7 ± 3.5 h. Moreover, for the setting “normal rats (group B)”, the AUC%Extrap stood at 25.9±15.5%, the AUMClast is given as 8.9±8.6 h*h*ng/ml, the Cmax1 was determined as 0.4 ± 0.1 ng/mL and the Cmax2 was 0.1 ± 0.03 ng/mL. Besides, where the note is “normal rats (group B)”, the HLλz came out at 6.3 ± 3.5 h, the Tmax1 worked out at 0.6 ± 0.4 h and the Tmax2 is 8.0 ± 2.2 h.
